Active and inactive are the calls of the source.
Tests used:
Streptokinase A = target: T1, Streptokinase A (Streptococcus pyogenes serotype M1, UniProt P10520); assay: viability-normalized secreted streptokinase activity reduction – plasminogen activation absorbance, OD405, dose response (AID 1914); type: functional, Streptococcus pyogenes M1 GAS;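 note: secreted streptokinase activity via plasminogen activation per viability signal from cell pellet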
T1 sequence (P10520 whole entry): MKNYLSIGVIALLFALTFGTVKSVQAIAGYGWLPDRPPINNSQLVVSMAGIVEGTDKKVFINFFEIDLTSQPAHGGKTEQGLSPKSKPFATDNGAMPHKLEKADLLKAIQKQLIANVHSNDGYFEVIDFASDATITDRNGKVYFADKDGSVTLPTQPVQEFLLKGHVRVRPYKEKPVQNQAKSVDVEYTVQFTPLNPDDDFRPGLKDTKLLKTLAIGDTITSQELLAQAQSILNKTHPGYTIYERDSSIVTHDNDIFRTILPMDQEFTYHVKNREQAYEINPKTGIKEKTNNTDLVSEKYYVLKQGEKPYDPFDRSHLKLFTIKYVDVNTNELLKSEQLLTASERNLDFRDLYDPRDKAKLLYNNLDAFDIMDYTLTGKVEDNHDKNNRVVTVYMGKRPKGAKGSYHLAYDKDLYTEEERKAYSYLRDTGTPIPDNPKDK

[1] = tested on: Streptococcus sp. 'group A'; assay: Streptococcus pyogenes SK(-)GAS viability under kanamycin – luminescence, BacTiterGlo, confirmation, counter-screen for streptokinase expression inhibitor project, dose response (AID 1900); type: functional, organism-based
Streptococcus = assay: GAS UMAA2166 growth inhibition – luminescence, BacTiterGlo, counter-screen for streptokinase expression inhibitor project, dose response (AID 1915); type: functional, organism-based;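 note: potency for reduction of bacterial viability or growth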
[2] = Trypanosoma cruzi growth suppression in host cells – NIH3T3 host cells, beta-gal luminescence, confirmation (AID 2044); type: functional, cell-based;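 note: intracellular parasites grown in NIH/3T3 mouse fibroblasts as host cells; luminescent beta-galactosidase reporter signal from transgenic T. cruzi replicating inside host cells; inhibitors lower the luminescence signal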
[3] = NIH3T3 cell viability loss – ATP luminescence, mouse fibroblasts, counter-screen, dose response (AID 2010); type: functional, cell-based;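 note: cells exposed to compound for about 90 hours before reading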
[4] = luciferase reporter signal suppression in cells – H4 neuroglioma cells, luminescence, dose response (AID 1990); type: functional, cell-based
[5] = alpha-synuclein stem-loop luciferase translation blockers – H4 neuroglioma cells, luminescence, confirmation (AID 1988); type: functional, cell-based
[6] = Luminescence Cell-Based Dose Response HTS to Identify Inhibitors of 5'UTR Stem-Loop Driven Prion Protein mRNA Translation in H4 Neuroglioblastoma Cells. [Related pubchem assays: 1827 (Project Summary), 1813 (Primary HTS)]; type: functional
[7] = target: T2, Corticotropin-releasing factor receptor 2/Corticotropin-releasing factor-binding protein (Homo sapiens, UniProt P24387+Q13324); assay: activators of CRF receptor 2 with binding protein – uHTS hits, confirmation (AID 602473); type: functional; settings: read-out: EC50_Mean
T2 sequence (Q13324 whole entry): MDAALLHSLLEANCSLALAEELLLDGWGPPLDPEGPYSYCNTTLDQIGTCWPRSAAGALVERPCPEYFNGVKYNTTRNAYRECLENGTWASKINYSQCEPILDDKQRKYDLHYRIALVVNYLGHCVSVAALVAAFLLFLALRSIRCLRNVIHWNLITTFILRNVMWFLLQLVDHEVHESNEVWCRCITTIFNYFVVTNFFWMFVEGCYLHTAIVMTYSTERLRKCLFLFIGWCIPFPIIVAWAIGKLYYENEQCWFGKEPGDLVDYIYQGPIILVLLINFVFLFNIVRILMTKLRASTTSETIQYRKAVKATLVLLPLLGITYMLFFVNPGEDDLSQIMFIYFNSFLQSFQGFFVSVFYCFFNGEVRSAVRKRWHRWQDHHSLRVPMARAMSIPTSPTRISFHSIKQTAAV
T2 sequence (P24387 whole entry): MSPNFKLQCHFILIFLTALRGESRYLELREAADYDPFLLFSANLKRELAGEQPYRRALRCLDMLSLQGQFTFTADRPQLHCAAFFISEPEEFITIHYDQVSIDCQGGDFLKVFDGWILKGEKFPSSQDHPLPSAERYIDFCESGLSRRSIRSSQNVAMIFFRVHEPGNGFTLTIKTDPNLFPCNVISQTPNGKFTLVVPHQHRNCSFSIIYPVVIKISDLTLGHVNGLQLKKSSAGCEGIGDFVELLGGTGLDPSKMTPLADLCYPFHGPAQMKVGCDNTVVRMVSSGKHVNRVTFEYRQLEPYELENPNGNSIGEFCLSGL

Cytochrome P450 2C19 = Cytochrome P450 2C19 (Homo sapiens, UniProt P33261); assay: Cytochrome panel assay with activity outcomes. Panel member name: p450-cyp2c19 Compounds with AC50 equal or less than 10 uM are considered active; type: functional; settings: read-out: AC50
Chain of Cytochrome P450 2C19 (P33261 whole entry): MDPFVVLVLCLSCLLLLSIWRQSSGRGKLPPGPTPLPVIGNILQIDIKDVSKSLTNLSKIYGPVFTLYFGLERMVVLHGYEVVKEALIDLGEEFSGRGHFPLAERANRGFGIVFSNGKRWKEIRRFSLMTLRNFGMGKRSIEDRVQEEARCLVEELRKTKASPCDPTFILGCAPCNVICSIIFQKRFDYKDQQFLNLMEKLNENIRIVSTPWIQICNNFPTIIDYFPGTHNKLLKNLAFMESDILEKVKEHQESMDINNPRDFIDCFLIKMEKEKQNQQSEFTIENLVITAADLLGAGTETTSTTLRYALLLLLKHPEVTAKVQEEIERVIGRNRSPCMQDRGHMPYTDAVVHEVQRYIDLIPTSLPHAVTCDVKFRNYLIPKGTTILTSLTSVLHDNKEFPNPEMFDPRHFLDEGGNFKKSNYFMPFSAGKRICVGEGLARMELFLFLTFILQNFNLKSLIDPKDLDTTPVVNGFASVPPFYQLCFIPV

| SMILES | EC50 (Streptokinase A) | EC50 [1] | EC50 (Streptococcus) | EC50 [2] | EC50 [3] | other results |
| --- | --- | --- | --- | --- | --- | --- |
| CCOC(=O)C1=NN(C(=O)c2ccc(OC)cc2)C(O)(c2ccc(Cl)cc2)C1 (configuration not stated) | > 150 µM (not active) | 7.85 µM (active) | 15.7 µM (active) | – | – | – |
| Cc1ccc(C)c(NC(=O)c2cccc(Oc3ccc([N+](=O)[O-])cc3Cl)c2)c1 | – | – | – | 1.45 µM (active) | > 30 µM (not active) | – |
| CC(/C=C/C=C/c1ccccc1)=N/NC(=O)c1ccc2c(c1)OCCO2 | > 150 µM (not active) | > 150 µM (not active) | > 150 µM (not active) | – | – | – |
| COc1ccc(-n2ncc3c2CC(C)(C)CC3NC(=O)c2ocnc2C)cc1 (configuration not stated) | – | – | – | – | – | EC50 [4]: > 120 µM (not active); EC50 [5]: > 120 µM (not active) |
| CCOC(=O)C1CCCN(Cc2ccc(O)c(OC)c2)C1 (configuration not stated) | – | – | – | 0.183 µM (active) | > 60 µM (not active) | – |
| Cc1ccc(OCC(=O)N/N=C/c2cn(Cc3ccccc3)c3ccccc23)cc1 | – | – | – | – | – | EC50 [4]: 9.88 µM (active); EC50 [5]: 5.86 µM (active); EC50 [6]: 13.1 µM (active) |
| O=[N+]([O-])c1cccc(-c2ccc(/C=N/NC(=S)Nc3ccccc3)o2)c1 | – | – | – | 1.99 µM (active) | – | – |
| CCCN(Cc1ccco1)S(=O)(=O)c1ccc(OC)c(OC)c1 | > 150 µM (not active) | > 150 µM (not active) | > 150 µM (not active) | – | – | – |
| Cc1ccc(S(=O)(=O)N2CCCCC2)cc1NC(=O)Nc1ccc(Cl)cc1Cl | – | – | – | 1.06 µM (active) | > 60 µM (not active) | – |
| CNc1nc2nc(O)c3c(c2s1)OC(N)=C(C#N)C3c1cccc(F)c1 (configuration not stated) | – | – | – | – | – | EC50 [7]: > 53 µM (inactive) |
| CN(C)c1ncc2nc(-c3ccccc3)c(=O)n(CCC#N)c2n1 | – | – | – | – | – | AC50 (Cytochrome P450 2C19): 39.8 µM (inconclusive) |
| Cn1c(N)c(C(=O)COC(=O)CCc2c[nH]c3ccccc23)c(=O)n(C)c1=O | > 150 µM (not active) | 24.6 µM (active) | 79.6 µM (active) | – | – | – |
| Cn1nc([N+](=O)[O-])nc1Oc1ccccc1F | – | – | – | 0.551 µM (active) | > 60 µM (not active) | – |
| Cc1ccccc1OCCCc1c(C)n[nH]c1C | > 150 µM (not active) | 19.9 µM (active) | > 150 µM (not active) | – | – | – |
| O=C(Nc1ccncc1)c1cccc(S(=O)(=O)N2CCN(c3ccc(F)cc3)CC2)c1 | – | – | – | 1.14 µM (active) | > 30 µM (not active) | – |
| O=C(COC(=O)CSc1cc(Cl)ccc1Cl)NCc1ccc2c(c1)OCO2 | – | – | – | – | – | EC50 [7]: > 53 µM (inactive) |
| CN1CCN(C(=O)C(=O)c2cn(CC(=O)N3CCCC3)c3ccccc23)CC1 | > 150 µM (not active) | > 150 µM (not active) | > 150 µM (not active) | – | – | – |
| O=C(CSc1nnc(-c2c[nH]c3ccccc23)o1)N(Cc1ccccc1)c1ccc(F)cc1 | – | – | – | 1.58 µM (active) | > 60 µM (not active) | – |
| COC(=O)c1ccc(OC)c(CN2CCCN(Cc3ccc(F)cc3)S2(=O)=O)c1 | – | – | – | 1.75 µM (active) | > 30 µM (not active) | – |
| Oc1ccc(/C=N/Nc2ccc3ccccc3c2)c(O)c1 | > 150 µM (not active) | 6.27 µM (active) | 31.9 µM (active) | – | – | – |
| Cc1cccc(N=Nc2c(C)nn(-c3ccccc3)c2N)c1C | 22 µM (active) | 11.7 µM (active) | 15.8 µM (active) | – | – | – |
| CCc1nnc(NC(=O)c2sc3nc4cc(C)ccc4cc3c2N)s1 | – | 6.73 µM (active) | 3.95 µM (active) | – | – | – |
| Cn1c(=O)n(C)c2cc(NS(=O)(=O)c3ccccc3[N+](=O)[O-])ccc21 | > 150 µM (not active) | > 150 µM (not active) | > 150 µM (not active) | – | – | – |

Reference: ChEMBL document CHEMBL1201862, “PubChem BioAssay data set” (2004)
